{"source": "patent EP0882015B1", "about": "“DIPHENYL STILBENES AS PRODRUGS TO COX-2 INHIBITORS” (Merck Frosst Canada & Co., priority 1996, dated 1997)", "assay": "Rat plasma levels, per os pharmacokinetics in rats (conversion of prodrug to active COX-2 inhibitor)", "format": "in vivo, Male Sprague Dawley rats", "details": "maximum plasma concentration of the corresponding lactone (active COX-2 inhibitor) observed in rats dosed at 20 mg/kg orally with the indicated prodrug", "excerpt": "The animals are housed, fed and cared for according to the Guidelines of the Canadian Council on Animal Care.\nMale Sprague Dawley rats (325-375 g) are fasted overnight prior to each PO blood level study.\nThe rats are placed in the restrainer one at a time and the box is firmly secured. The zero blood sample is obtained by nicking a small (1 mm or less) piece off the tip of the tail. The tail is then stroked with a firm but gentle motion from the top to the bottom to milk out the blood. Approximately 1 mL of blood is collected into a heparinized vacutainer tube.\nCompounds are prepared as required, in a standard dosing volume of 10mL/kg, and administered orally by passing a 16 gauge, 3\" gavaging needle into the stomach.\nSubsequent bleeds are taken in the same manner as the zero bleed except that there is no need to nick the tail again. The tail is cleaned with a piece of gauze and milked/stroked as described above into the appropriately labelled tubes.\nImmediately after sampling, blood is centrifuged, separated, put into clearly marked vials and stored in a freezer until analysed. […]\nFor analysis, aliquots are diluted with an equal volume of acetonitrile and centrifuged to remove protein precipitate. […] Quantitation is done relative to a clean blood sample spiked with a known quantity of drug. […]", "data": [{"smiles": "COC(=O)/C(=C(\\C)c1ccc(S(C)(=O)=O)cc1)c1ccccc1", "note": "[Example 1, (E)-3-(4-Methylsulfonyl)phenyl-2-phenylbut-2-enoic acid methyl ester]", "values": [{"measurement": "Plasma Levels", "value": 1000, "unit": "nM"}]}]}
